Calls of active or inactive are those of the source. How the calls were made is not given here.

This assay concerns MRP1 cells, doxorubicin viability shift, 10 uM compound. As to the kind of experiment: doxorubicin EC50 increase in MRP-1 cells, dose response, cell-based, doxorubicin EC50 shift (AID 844). The note with it: for EC50: measured here: doxorubicin EC50 with compound.

A word on the EC50: it is the concentration needed to bring the measured effect to its halfway point. Take `CCOc1ccc(Cn2nnc(C(=O)NCCc3ccc(Cl)cc3)c2N)cc1`: the fold increase in Dox EC50 was 1.6 and the EC50 was found to be 8.64 µM.
The like results for `CCC(=O)N1CCN=C1SCc1ccc(F)cc1` were, in that order, 0.75 (inactive) and 4.07 µM.
The like results for `CCOC(=O)CCCCC(=O)c1[nH]c(=O)[nH]c1CSc1nc(-c2ccccc2)c(C#N)c(=O)[nH]1` were, in that order, 1.22 (inactive) and 6.57 µM.
The like results for `NNC(=O)CNC(c1ccccc1)c1cc(Br)ccc1NC(=O)c1cccc(Cl)c1` (configuration not stated) were, in that order, 1.21 (inactive) and 6.53 µM.
For `Cc1ccc(/C=C2\SC(=S)N(CCC(=O)NNC(=O)c3cccnc3)C2=O)cc1`, the fold increase in Dox EC50 is 0.91 (inactive) and the half-maximal effective concentration (EC50) is 4.9 µM.
The like results for `CCC1SC2=NC(C)=C(C(=O)OCCOC)C(c3ccc(C(=O)OC)cc3)N2C1=O` (configuration not stated) were, in that order, 0.92 (inactive) and 4.98 µM.
For `COc1ccc(C(=O)NCCn2cc(SCC(=O)Nc3nnc(C)s3)c3ccccc32)cc1`, the fold increase in Dox EC50 is 0.5 (inactive) and the EC50 stood at 2.72 µM.
The corresponding values for `Cc1ccc(OCCN2CCN(C(=O)CCC(=O)Nc3nnc(C)s3)CC2)cc1` are 1.53 and 8.28 µM.
The corresponding values for `COc1ccc(C2C(C(=O)OCC(=O)NC(C)(C)C)CCC(=O)N2c2ccc(C)cc2)cc1OC` (configuration not stated) are 0.81 (inactive) and 4.36 µM.
The corresponding values for `Cc1c(NC(=O)c2ccccc2NS(=O)(=O)c2ccc(Br)cc2)c(=O)n(-c2ccccc2)n1C` are 0.65 (inactive) and 3.53 µM.
Turning to `CCCCn1nnc(NC(=S)NC(=O)c2cccs2)n1`, the fold increase in Dox EC50 was 1.16 (inactive) and the EC50 was 6.26 µM.
The corresponding values for `COc1ccc(NC(=O)Cn2cc(C(=O)c3ccco3)c3ccccc32)cc1` are 0.88 (inactive) and 4.74 µM.
For the compound `CC(C)(C)c1ccc(OCC(O)CSc2ncn[nH]2)cc1` (configuration not stated), the fold increase in Dox EC50 is 0.88 (inactive) and the EC50 is 4.74 µM.
The corresponding values for `CCOP(=O)(OCC)C(NC(=O)Nc1ccc(Cl)cc1)C(=O)N(CC)CC` (configuration not stated) are 1.33 (inactive) and 7.16 µM.
As for `O=C(CSCc1ccc(Cl)cc1)NCC1CCCO1` (configuration not stated), the fold increase in Dox EC50 is 1.1 (inactive) and the EC50 amounted to 5.96 µM.
With `Cc1cc(C(=O)COC(=O)c2ccc3c(c2)OCO3)c(C)n1Cc1cccs1`, the fold increase in Dox EC50 is 1.06 (inactive) and the 50% effective concentration (EC50) came to 5.7 µM.
On to `Cc1onc(-c2ccccc2Cl)c1C(=O)Nc1nnc(-c2ccc(Br)cc2)s1`, for which the fold increase in Dox EC50 is 0.75 (inactive) and the EC50 is 4.04 µM.
On to `O=C(CCN1C(=O)/C(=C/c2ccccc2)SC1=S)NNC(=O)c1cccnc1`, for which the fold increase in Dox EC50 was 1.27 (inactive) and the EC50 stood at 6.88 µM.
Regarding `CC1CCc2c(C(=O)OCC(=O)Nc3cccc(S(=O)(=O)N4CCCCCC4)c3)csc2C1` (configuration not stated), the fold increase in Dox EC50 is 1.05 (inactive) and the EC50 stood at 5.68 µM.
For `COC(=O)C1=C(C)NC(C)=C(C(=O)OC)C1c1ccccc1OCc1c(C)no[n+]1[O-]`, the fold increase in Dox EC50 is 0.98 (inactive) and the EC50 was 5.32 µM.
The like results for `CCC1(C)Cc2c(sc3nnn(CC(=O)Nc4ccc(Cl)cc4)c(=O)c23)CO1` (configuration not stated) were, in that order, 0.2 (inactive) and 1.09 µM.
For `CCCCOc1ccc(/C=C/C(=O)Nc2ccc([N+](=O)[O-])cc2C)cc1`, the fold increase in Dox EC50 is 1.17 (inactive) and the concentration for a half-maximal effect (EC50) was 6.3 µM.
For `COc1ccc(NC(=O)c2c(F)cccc2F)cc1S(=O)(=O)Nc1ccc(Br)cc1`, the fold increase in Dox EC50 is 0.71 (inactive) and the EC50 is 3.86 µM.
The like results for `O=C(CC(c1ccccc1)c1ccccc1)Nc1ncn[nH]1` were, in that order, 0.75 (inactive) and 4.03 µM.
The corresponding values for `Cc1ccc(/C=C2\SC(=S)N(CCCC(=O)Nc3ccccn3)C2=O)cc1` are 0.82 (inactive) and 4.44 µM.
Take `Cc1ccc(Cl)cc1N1CCN(C(=O)c2cc3c(=O)n(C)c4ccccc4c3n2C)CC1`: the fold increase in Dox EC50 is 0.19 (inactive) and the EC50 turned out to be 1 µM.
The corresponding values for `COc1ccc(-c2cc3nc(-c4ccccc4)cc(N4CCC5(CC4)OCCO5)n3n2)cc1` are 0.21 (inactive) and 1.16 µM.
Take `CCOC(=O)CN1C(=O)C(C)(C)Oc2ccc(C(=O)Nc3ccccc3OC)cc21`: the fold increase in Dox EC50 was 0.85 (inactive) and the EC50 amounted to 4.6 µM.
The corresponding values for `Cc1ccc(-c2nc(C3CCCN(S(=O)(=O)c4ccc(C)cc4)C3)no2)cc1` (configuration not stated) are 1.08 (inactive) and 5.85 µM.
As for `COc1cccc(C2C(C(=O)Nc3nc4ccccc4s3)=C(C)NC3=C2C(=O)CC(C)(C)C3)c1OC` (configuration not stated), the fold increase in Dox EC50 was 0.3 (inactive) and the EC50 was found to be 1.6 µM.
Consider `CCOC(=O)c1c(NC(=O)CSc2ncn[nH]2)sc(C)c1C`, for which the fold increase in Dox EC50 is 0.32 (inactive) and the EC50 came out at 1.74 µM.
The like results for `COC(=O)c1cnn(-c2cc(Oc3ccccc3)ncn2)c1N` were, in that order, 0.76 (inactive) and 4.11 µM.
The like results for `O=C(Nc1cccc([N+](=O)[O-])c1)c1[nH]ncc1Cl` were, in that order, 0.54 (inactive) and 2.89 µM.
The like results for `c1ccc(N2CCN(c3nc(-c4cccs4)nc4ccccc34)CC2)cc1` were, in that order, 0.81 (inactive) and 4.37 µM.
Take `Nc1ccc(CC2SC(=O)NC2=O)cc1` (configuration not stated): the fold increase in Dox EC50 was 1.24 (inactive) and the EC50 came to 6.72 µM.
Turning to `O=C(COc1ccc(Cl)cc1)N1CCN(Cc2ccccc2)CC1`, the fold increase in Dox EC50 is 1.38 (inactive) and the EC50 came to 7.48 µM.
The like results for `CN(CC(=O)NCCc1ccc(Cl)cc1)S(=O)(=O)c1ccc2c(c1)c(=O)n(C)c(=O)n2C` were, in that order, 0.54 (inactive) and 2.93 µM.
The like results for `O=[N+]([O-])c1ccc(O)c(/C=N/n2cnc3ccccc32)c1` were, in that order, 0.67 (inactive) and 3.61 µM.
The like results for `CCC1(C)Cc2c(sc3nnn(CC(=O)Nc4ccc(C)cc4)c(=O)c23)CO1` (configuration not stated) were, in that order, 1.07 (inactive) and 5.79 µM.
For `O=C(Nc1nnc(C(F)(F)F)s1)C1COc2ccccc2O1` (configuration not stated), the fold increase in Dox EC50 was 0.85 (inactive) and the EC50 was 4.56 µM.
For the compound `O=C(CSc1ncn[nH]1)N1N=C2/C(=C/c3ccco3)CCCC2C1c1ccco1` (configuration not stated), the fold increase in Dox EC50 was 0.4 (inactive) and the EC50 was 2.17 µM.
Turning to `C/C(=N\NC(=O)CCc1c[nH]c2ccccc12)c1cccc([N+](=O)[O-])c1`, the fold increase in Dox EC50 was 0.8 (inactive) and the EC50 was found to be 4.33 µM.
The like results for `CCOc1ccc(NC(=O)N2CCC(n3c(=O)[nH]c4ccccc43)CC2)cc1` were, in that order, 0.9 (inactive) and 4.85 µM.
`COC(=O)c1cn(NC(=O)c2cccnc2)c(=O)c2ccccc12`: the fold increase in Dox EC50 is 0.52 (inactive) and the EC50 is 2.79 µM.
Regarding `O=C(CCc1ccccc1)N/N=C/c1cc(Br)ccc1O`, the fold increase in Dox EC50 was 0.12 (inactive) and the EC50 came out at 0.631 µM.
As for `N#Cc1c(-c2ccco2)nc(SCC(=O)Nc2cccc(Cl)c2)[nH]c1=O`, the fold increase in Dox EC50 is 1.33 (inactive) and the EC50 came out at 7.17 µM.
Take `O=C1CC(N2CCC(c3nc4ccccc4o3)CC2)C(=O)N1c1cc(Cl)cc(Cl)c1` (configuration not stated): the fold increase in Dox EC50 was 1.36 (inactive) and the EC50 was determined as 7.36 µM.
For the compound `COc1cc(SC)ccc1C(=O)NCCOc1ccc(Cl)cc1`, the fold increase in Dox EC50 was 1.36 (inactive) and the EC50 amounted to 7.36 µM.
The corresponding values for `CC(=O)c1ccc(N2CCN(c3ccc(C(F)(F)F)cn3)CC2)cc1` are 0.56 (inactive) and 3 µM.
As for `Cc1cc(C)n2nc(C(=O)Nc3nnc(C4CC4)s3)nc2n1`, the fold increase in Dox EC50 was 0.87 (inactive) and the EC50 was 4.7 µM.
The like results for `CCCCc1ccc(NC(=O)c2c(C)noc2C)cc1` were, in that order, 1.23 (inactive) and 6.63 µM.
The like results for `O=C(CN1C(=O)/C(=C/c2ccccc2)SC1=S)Nc1ncc(Cc2ccccc2)s1` were, in that order, 1.49 (inactive) and 8.03 µM.
As to `COC(=O)N/N=C/c1ccc(-c2ccc(C)c(Cl)c2)o1`, the fold increase in Dox EC50 is 0.63 (inactive) and the EC50 was 3.41 µM.
The corresponding values for `O=C1[C@@H]2[C@H](Cc3ccc(O)cc3)N[C@]3(C(=O)Nc4ccccc43)[C@@H]2C(=O)N1c1ccc(F)cc1` are 1.46 (inactive) and 7.88 µM.
The like results for `O=C(N/N=C/c1ccc(-c2ccc([N+](=O)[O-])cc2)o1)C(O)c1ccccc1` (configuration not stated) were, in that order, 0.74 (inactive) and 3.97 µM.
With `O=C(NN1C(=O)/C(=C\c2cccnc2)SC1=S)C(c1ccccc1)c1ccccc1`, the fold increase in Dox EC50 was 0.84 (inactive) and the EC50 was 4.56 µM.
Take `CC(=O)Nc1ccc2[nH]c(C)c(CC=C(Cl)Cl)c(=O)c2c1`: the fold increase in Dox EC50 was 0.72 (inactive) and the EC50 worked out at 3.87 µM.
Consider `O=C1CC(N2CCC(n3c(=O)[nH]c4ccccc43)CC2)C(=O)N1c1ccc(F)cc1` (configuration not stated), for which the fold increase in Dox EC50 was 1.41 (inactive) and the EC50 stood at 7.59 µM.
The like results for `Cn1nnc(NC(=O)COc2ccc(C3CCCCC3)cc2)n1` were, in that order, 1.49 and 8.05 µM.
The corresponding values for `COc1cccc(/C=N/NC(=O)C(=O)N2CCCC2)c1O` are 0.67 (inactive) and 3.6 µM.
On to `O=C(NNC(=O)c1cccnc1)Nc1cccc2ccccc12`, for which the fold increase in Dox EC50 was 0.66 (inactive) and the EC50 worked out at 3.57 µM.

The values are drawn from PubChem BioAssay AID844 (SRMLSC, 2007).
